Test results as given in PubChem BioAssay AID1259407 (Chemical Carcinogenesis Research Information System (CCRIS), 2018).
Activity calls are given as the source filed them. How the calls were made is not given here.

Test system: CCRIS mutagenicity, Ames/micronucleus/aberration tests
Experiment: CCRIS mutagenicity studies
[1] = Test System: AMES SALMONELLA TYPHIMURIUM, Strain/Indicator: TA100, Metabolic Activation: NONE, Method: STANDARD PLATE

Measured: mutagenic call

CC(C)C#N
inactive: End Point: In vitro chromosomal aberrations, Test System: Chinese hamster lung (CHL/IU) cells, Metabolic Activation: Rat, Liver, S9, Phenobarbital and 5,6-benzoflavone inactive; negative | Test System: Ames Salmonella typhimurium, Strain/Indicator: TA1535, Metabolic Activation: None, Method: Preincubation inactive; negative
active: Test System: Ames Salmonella typhimurium, Strain/Indicator: TA100, Metabolic Activation: None, Method: Preincubation active; positive | Test System: Ames Salmonella typhimurium, Strain/Indicator: TA100, Metabolic Activation: Rat, Liver, S9, Sodium phenobarbital and 5,6-benzoflavone (10%), Method: Preincubation active; positive | Test System: Ames Salmonella typhimurium, Strain/Indicator: TA1537, Metabolic Activation: None, Method: Preincubation active; positive | Test System: E. coli, Strain/Indicator: WP2uvrA/pKM101, Metabolic Activation: None, Method: Preincubation active; positive | Test System: E. coli, Strain/Indicator: WP2uvrA/pKM101, Metabolic Activation: Rat, Liver, S9, Sodium phenobarbital and 5,6-benzoflavone (10%), Method: Preincubation active; positive

CC(C)(S)[C@H](N)C(=O)O
active: Test System: AMES SALMONELLA TYPHIMURIUM, Strain/Indicator: TA92, Metabolic Activation: NONE, Method: STANDARD PLATE active; positive | Test System: AMES SALMONELLA TYPHIMURIUM, Strain/Indicator: TA92, Metabolic Activation: RAT, KIDNEY, S-9, Method: STANDARD PLATE active; positive | Test System: AMES SALMONELLA TYPHIMURIUM, Strain/Indicator: TA92, Metabolic Activation: RAT, LIVER, S-9, Method: STANDARD PLATE active; positive | [1] active; positive | Test System: AMES SALMONELLA TYPHIMURIUM, Strain/Indicator: TA100, Metabolic Activation: RAT, KIDNEY, S-9, Method: STANDARD PLATE active; positive | Test System: AMES SALMONELLA TYPHIMURIUM, Strain/Indicator: TA100, Metabolic Activation: RAT, LIVER, S-9, Method: STANDARD PLATE active; positive | Test System: AMES SALMONELLA TYPHIMURIUM, Strain/Indicator: TA102, Metabolic Activation: NONE, Method: STANDARD PLATE active; positive

Cc1cc2nc3cc(C)c(N)cc3[n+](-c3ccccc3)c2cc1N
active: Test System: AMES SALMONELLA TYPHIMURIUM, Strain/Indicator: TA98, Method: PREINCUBATION active; positive | Test System: AMES SALMONELLA TYPHIMURIUM, Strain/Indicator: TA100, Method: PREINCUBATION active; positive

Nc1ccc(Cc2ccc(N)cc2)cc1
active: Test System: AMES SALMONELLA TYPHIMURIUM, Strain/Indicator: TA97, Metabolic Activation: HAMSTER, LIVER, S-9, AROCLOR 1254 (10%), Method: PREINCUBATION active; positive | Test System: AMES SALMONELLA TYPHIMURIUM, Strain/Indicator: TA98, Metabolic Activation: HAMSTER, LIVER, S-9, AROCLOR 1254 (10%), Method: PREINCUBATION active; positive | Test System: AMES SALMONELLA TYPHIMURIUM, Strain/Indicator: TA98, Metabolic Activation: RAT, LIVER, S-9, AROCLOR 1254, Method: STANDARD PLATE active; positive | Test System: AMES SALMONELLA TYPHIMURIUM, Strain/Indicator: TA98, Metabolic Activation: RAT, LIVER, S-9, PCB, Method: PREINCUBATION active; positive | Test System: AMES SALMONELLA TYPHIMURIUM, Strain/Indicator: TA98, Metabolic Activation: RAT, LIVER, S-9, PCB, Method: STANDARD PLATE active; positive | Test System: AMES SALMONELLA TYPHIMURIUM, Strain/Indicator: TA100, Metabolic Activation: HAMSTER, LIVER, S-9, AROCLOR 1254 (10%), Method: PREINCUBATION active; positive | Test System: AMES SALMONELLA TYPHIMURIUM, Strain/Indicator: TA100, Metabolic Activation: RAT, LIVER, S-9, AROCLOR 1254 (10%), Method: PREINCUBATION active; positive | Test System: AMES SALMONELLA TYPHIMURIUM, Strain/Indicator: TA100, Metabolic Activation: RAT, LIVER, S-9, AROCLOR 1254, Method: STANDARD PLATE active; positive | Test System: AMES SALMONELLA TYPHIMURIUM, Strain/Indicator: TA100, Metabolic Activation: RAT, LIVER, S-9, PCB, Method: PREINCUBATION active; positive | Test System: AMES SALMONELLA TYPHIMURIUM, Strain/Indicator: TA100, Metabolic Activation: RAT, LIVER, S-9, PCB, Method: STANDARD PLATE active; positive | Test System: AMES SALMONELLA TYPHIMURIUM, Strain/Indicator: TA100, Metabolic Activation: RAT, LIVER, S-9, PHENOBARBITAL, Method: PREINCUBATION active; positive | Test System: AMES SALMONELLA TYPHIMURIUM, Strain/Indicator: TA1535, Metabolic Activation: HAMSTER, LIVER, S-9, AROCLOR 1254 (5 OR 30%), Method: PREINCUBATION active; positive | Test System: AMES SALMONELLA TYPHIMURIUM, Strain/Indicator: TA1535, Metabolic Activation: HAMSTER, LIVER, S-9, AROCLOR 1254 (10%), Method: PREINCUBATION active; positive
inactive: End Point: IN VIVO MICRONUCLEUS, Test System: PERIPHERAL BLOOD RETICULOCYTES, Species: RAT, Strain/Sex: FISHER 344 OR SD/MALE, Route: ORAL OR IP inactive; negative | Test System: AMES SALMONELLA TYPHIMURIUM, Strain/Indicator: TA97, Metabolic Activation: NONE, Method: PREINCUBATION inactive; negative | Test System: AMES SALMONELLA TYPHIMURIUM, Strain/Indicator: TA98, Metabolic Activation: NONE, Method: PREINCUBATION inactive; negative | Test System: AMES SALMONELLA TYPHIMURIUM, Strain/Indicator: TA98, Metabolic Activation: NONE, Method: STANDARD PLATE inactive; negative | Test System: AMES SALMONELLA TYPHIMURIUM, Strain/Indicator: TA98, Metabolic Activation: RAT, LIVER, S-9, PHENOBARBITAL, Method: PREINCUBATION inactive; negative | Test System: AMES SALMONELLA TYPHIMURIUM, Strain/Indicator: TA100, Metabolic Activation: NONE, Method: PREINCUBATION inactive; negative | [1] inactive; negative | Test System: AMES SALMONELLA TYPHIMURIUM, Strain/Indicator: TA1535, Metabolic Activation: NONE, Method: PREINCUBATION inactive; negative | Test System: AMES SALMONELLA TYPHIMURIUM, Strain/Indicator: TA1535, Metabolic Activation: RAT, LIVER, S-9, AROCLOR 1254 (10%), Method: PREINCUBATION inactive; negative | Test System: E. COLI, Strain/Indicator: WP2 UVRA, Metabolic Activation: HAMSTER, LIVER, S-9, AROCLOR 1254, Method: STANDARD PLATE inactive; negative | Test System: E. COLI, Strain/Indicator: WP2 UVRA, Metabolic Activation: HAMSTER, LIVER, S-9, Method: STANDARD PLATE inactive; negative | Test System: E. COLI, Strain/Indicator: WP2 UVRA, Metabolic Activation: MOUSE, LIVER, S-9, AROCLOR 1254, Method: STANDARD PLATE inactive; negative | Test System: E. COLI, Strain/Indicator: WP2 UVRA, Metabolic Activation: MOUSE, LIVER, S-9, Method: STANDARD PLATE inactive; negative | Test System: E. COLI, Strain/Indicator: WP2 UVRA, Metabolic Activation: NONE, Method: STANDARD PLATE inactive; negative | Test System: E. COLI, Strain/Indicator: WP2 UVRA, Metabolic Activation: RAT, LIVER, S-9, AROCLOR 1254, Method: STANDARD PLATE inactive; negative | Test System: E. COLI, Strain/Indicator: WP2 UVRA, Metabolic Activation: RAT, LIVER, S-9, Method: STANDARD PLATE inactive; negative | Test System: UDS RAT HEPATOCYTES, Strain/Indicator: BROMODEOXYURIDINE INCORP, Metabolic Activation: NONE, Method: FLOW CYTOMETRIC ANALYSIS inactive; negative | Test System: UDS RAT HEPATOCYTES, Strain/Indicator: THY INCORP, Metabolic Activation: NONE, Method: AUTORADIOGRAPHY inactive; negative
